This note sets out measurements from EP4653437A2 (Innovo Therapeutics Inc., priority 2023, dated 2024).

In one assay the target is T1, human 15-PGDH (Homo sapiens, UniProt P15428).
T1 construct: purchased R&D System 5660-DH
T1 sequence (P15428 1-266): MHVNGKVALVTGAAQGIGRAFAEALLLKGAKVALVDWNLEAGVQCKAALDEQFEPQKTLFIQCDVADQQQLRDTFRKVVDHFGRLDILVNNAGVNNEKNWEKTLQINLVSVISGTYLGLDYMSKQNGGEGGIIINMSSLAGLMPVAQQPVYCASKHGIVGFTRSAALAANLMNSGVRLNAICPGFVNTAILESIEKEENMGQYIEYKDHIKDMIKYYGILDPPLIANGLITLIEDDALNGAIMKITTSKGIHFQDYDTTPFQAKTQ
Description: Evaluation of 15-PGDH inhibitory activity (fluorescence enzyme assay, NAD+/PGE2). In kind it is biochemical. The following applies: human 15-PGDH enzyme, fluorescence Vmax. As for the experimental part:
15-PGDH inhibition activity of Example compounds was measured as follows. 6.7 ng of human 15-PGDH (R&D System# 5660-DH) enzyme (10 µL) was added to a black 96 well plate, 60 µL of buffer (50 mM Tris-HCl, pH 7.5, 0.01% Tween 20) was added, and 10 µL of 200 µM β-Nicotinamide adenine dinucleotide sodium salt (Sigma, Cat# N0632-5G) was added. 10 µL of (10x) compound solution in DMSO was added and reacted for 10 minutes at room temperature.

For a further assay, the system named is A549 cells. The assay can be described thus: Measurement of PGE2-increasing activity in A549 cells (IL-1β stimulated, PGE2 quantified in supernatant). The following applies: Homo sapiens, 24 h; concentration of 1 µM of each compound; IL-1β treated A549 cells; read-out: Increased PGE2 production in A549 cells. In kind it is cell-based. As for the experimental part: A549 cells were prepared at a cell number of 1 x 10^5/mL in F12K medium containing 10% FBS (Fetal Bovine Serum), and 2 x 10^4/200 µL was added to each well of a 96-well cell culture plate, and then cultured in an incubator with 5% CO2 at 37 °C for 24 hours. After the culture was complete and all F12K medium was removed, all wells were washed once with 100 µL of PBS, and treated with 160 µL of serum-free F12K medium. Then, 20 µL of IL-1β diluted 10-fold to a concentration of 1 ng/mL in serum-free F12K medium was treated to wells to be treated with IL-1β, and 20 µL of serum-free F12K medium was treated to wells not treated with IL-1β. For the wells to be treated with the compound, 20 µL of the compound dissolved in 100% DMSO was diluted to a concentration 10 times of the desired compound concentration in serum-free F12K medium so that the final DMSO concentration treated to the cells was 0.1%, and for the wells not to be treated with the compound, 20 µL of DMSO diluted in serum-free F12K medium so that the final DMSO concentration treated to the cells was 0.1% was treated. In order to confirm the increase or decrease in the secretion amount of PGE2 in the supernatant collected after culturing for 24 hours in an incubator with 5% CO2 at 37 °C, PGE2 was quantified using the Prostaglandin E2 Parameter (SKGE004B).

Molecules are shown by their SMILES.

As a reminder, the IC50 is the concentration needed to halve the response being measured. On human 15-PGDH, `NC(=O)c1ncc(-c2ccc(-c3cccc4c(C(=O)N5CCCCC5)cnn34)cc2)cn1` [Example 307, 5-[4-[3-(piperidine-1-carbonyl)pyrazolo[1,5-a]pyridin-7-yl]phenyl]pyrimidine-2-carboxamide] registered an IC50 not above 100 nM. Besides, the fold induction at 1 µM with A549 cells was more than 1.5.
The molecule `O=C(Nc1cccc(-c2cccc3c(C(=O)N4CCCCC4)cnn23)c1)C1CC1` [Example 94, N-(3-(3-(piperidine-1-carbonyl)pyrazolo[1,5-a]pyridin-7-yl)phenyl)cyclopropanecarboxamide] displayed an IC50 against human 15-PGDH not above 100 nM. Further, the fold induction at 1 µM with A549 cells is more than 1.5.
The matching figures for `N#Cc1ncc(-c2cccc3c(C(=O)N4CCCCC4)cnn23)cn1` [Example 293, 5-[3-(piperidine-1-carbonyl)pyrazolo[1,5-a]pyridin-7-yl]pyrimidine-2-carbonitrile]: not above 100 nM and more than 1.5.
As for `O=C1CC(C(=O)Nc2cncc(-c3cccc4c(C(=O)N5CCCCC5)cnn34)c2)CCN1` (stereo not shown) [Example 198, 2-oxo-N-(5-(3-(piperidine-1-carbonyl)pyrazolo[1,5-a]pyridin-7-yl)pyridin-3-yl)piperidine-4-carboxamide], the IC50 against human 15-PGDH is not above 100 nM. Besides, the fold induction at 1 µM in the assay on A549 cells was more than 1.5.
Molecule `O=C(c1cnn2c(-c3ccc(-c4cn[nH]c4)cc3)cccc12)N1CCCCC1` [Example 346, 1-piperidyl-[7-[4-(1H-pyrazol-4-yl)phenyl]pyrazolo[1,5-a]pyridin-3-yl]methanone] came in with an IC50 at human 15-PGDH not above 100 nM. In the assay with A549 cells, the fold induction at 1 µM was more than 1.5.
Take `O=C(c1cnn2c(-c3ccc(-c4noc(=O)[nH]4)c(F)c3)cccc12)N1CCCCC1` [Example 304, 3-[2-fluoro-4-[3-(piperidine-1-carbonyl)pyrazolo[1,5-a]pyridin-7-yl]phenyl]-4H-1,2,4-oxadiazol-5-one]: the IC50 at human 15-PGDH was not above 100 nM. Moreover, in the assay with A549 cells, the fold induction at 1 µM was more than 1.5.
In the same order, the values of `O=C(c1cnn2c(-c3ccc(N4C5CCC4CC5)nc3)cccc12)N1CCCCC1` [Example 217] are not above 100 nM and more than 1.5.
The matching figures for `CC(C)NC(=O)c1cccc(-c2cccc3c(C(=O)N4CCCCC4)cnn23)c1` [Example 28, N-isopropyl-3-(3-(piperidine-1-carbonyl)pyrazolo[1,5-a]pyridin-7-yl)benzamide]: not above 100 nM and more than 1.5.
For the molecule `CN(C)CC(=O)Nc1cncc(-c2cccc3c(C(=O)N4CCCCC4)cnn23)c1` [Example 196, 2-(dimethylamino)-N-(5-(3-(piperidine-1-carbonyl)pyrazolo[1,5-a]pyridin-7-yl)pyridin-3-yl)acetamide], the IC50 on human 15-PGDH was not above 100 nM. The fold induction at 1 µM with A549 cells is more than 1.5.
The matching figures for `O=C1NCc2ccc(-c3cccc4c(C(=O)N5CC6(C5)CC(F)(F)C6)cnn34)cc21` [Example 412, 6-(3-(6,6-difluoro-2-azaspiro[3.3]heptane-2-carbonyl)pyrazolo[1,5-a]pyridin-7-yl)isoindolin-1-one]: not above 100 nM and more than 1.5.
`Cc1nnc(-c2ncc(-c3cccc4c(C(=O)N5CCCCC5)cnn34)cc2F)o1` [Example 379, [7-[5-fluoro-6-(5-methyl-1,3,4-oxadiazol-2-yl)-3-pyridyl]pyrazolo[1,5-a]pyridin-3-yl]-(1-piperidyl)methanone] displayed an IC50 at human 15-PGDH not above 100 nM. The fold induction at 1 µM with A549 cells was more than 1.5.
In the same order, the values of `O=C1NCc2ccc(-c3cccc4c(C(=O)N5CCCC(C(F)(F)F)C5)cnn34)cc21` (stereo not shown) [Example 398, 6-(3-(3-(trifluoromethyl)piperidine-1-carbonyl)pyrazolo[1,5-a]pyridin-7-yl)isoindolin-1-one] are not above 100 nM and more than 1.5.
The matching figures for `O=C(c1cnn2c(-c3cncc(-c4ncon4)c3)cccc12)N1CCCCC1` [Example 374, (7-(5-(1,2,4-oxadiazol-3-yl)pyridin-3-yl)pyrazolo[1,5-a]pyridin-3-yl)(piperidin-1-yl)methanone]: not above 100 nM and more than 1.5.
In the same order, the values of `O=C(Nc1ccnnc1)c1cncc(-c2cccc3c(C(=O)N4CCCCC4)cnn23)c1` [Example 56, 5-(3-(piperidine-1-carbonyl)pyrazolo[1,5-a]pyridin-7-yl)-N-(pyridazin-4-yl)nicotinamide] are not above 100 nM and more than 1.5.
As for `CN1CCC(Nc2cccc3c(C(=O)N4CCCCC4)cnn23)CC1` [Example 150, (7-((1-methylpiperidin-4-yl)amino)pyrazolo[1,5-a]pyridin-3-yl)(piperidin-1-yl)methanone], at human 15-PGDH, the IC50 was 100 to 1000 nM. The fold induction at 1 µM in the assay on A549 cells is less than 1.5.
The matching figures for `O=C(Nc1cccc(-c2cccc3c(C(=O)N4CCCCC4)cnn23)c1)c1cccnc1` [Example 95, N-(3-(3-(piperidine-1-carbonyl)pyrazolo[1,5-a]pyridin-7-yl)phenyl)nicotinamide]: not above 100 nM and more than 1.5.
In the same order, the values of `O=C(c1cnn2c(-c3ccc(N4CCC5(CCC5)C4)nc3)cccc12)N1CCCCC1` [Example 223, (7-(6-(6-azaspiro[3.4]octan-6-yl)pyridin-3-yl)pyrazolo[1,5-a]pyridin-3-yl)(piperidin-1-yl)methanone] are not above 100 nM and more than 1.5.
Molecule `O=C(c1cnn2c(NCCc3ccc(Cl)cc3)cccc12)N1CCCCC1` [Example 242, [7-[2-(4-chlorophenyl)ethylamino]pyrazolo[1,5-a]pyridin-3-yl]-(1-piperidyl)methanone] returned an IC50 against human 15-PGDH not above 100 nM. The fold induction at 1 µM in the assay with A549 cells is less than 1.5.
The matching figures for `O=C(c1cnn2c(-c3ccc(-c4cnc(O)nc4)cc3)cccc12)N1CCCCC1` [Example 306, [7-[4-(2-hydroxypyrimidin-5-yl)phenyl]pyrazolo[1,5-a]pyridin-3-yl]-(1-piperidyl)methanone]: not above 100 nM and more than 1.5.
For `O=C(Nc1ccc(-c2cccc3c(C(=O)N4CCCCC4)cnn23)cc1)c1cccnc1` [Example 101, N-(4-(3-(piperidine-1-carbonyl)pyrazolo[1,5-a]pyridin-7-yl)phenyl)nicotinamide], the IC50 against human 15-PGDH is not above 100 nM. The fold induction at 1 µM in the assay on A549 cells is more than 1.5.
In the same order, the values of `O=C(c1cnn2c(-c3ccc(Br)cc3)cccc12)N1CCCCC1` [Example 292, (7-(4-bromophenyl)pyrazolo[1,5-a]pyridin-3-yl)(piperidin-1-yl)methanone] are not above 100 nM and more than 1.5.
In the same order, the values of `Nc1cnn(-c2cc(-c3cccc4c(C(=O)N5CCCCC5)cnn34)cc(Br)n2)c1` [Example 356, (7-(2-(4-amino-1H-pyrazol-1-yl)-6-bromopyridin-4-yl)pyrazolo|[1,5-a]pyridin-3-yl)(piperidin-1-yl)methanone] are not above 100 nM and more than 1.5.
The matching figures for `O=C(c1cnn2c(-c3ccc(N4CC(F)C4)nc3)cccc12)N1CCCCC1` [Example 208, (7-(6-(3-fluoroazetidin-1-yl)pyridin-3-yl)pyrazolo[1,5-a]pyridin-3-yl)(piperidin-1-yl)methanone]: not above 100 nM and more than 1.5.
On human 15-PGDH, `Cc1noc(C)c1-c1ncc(-c2cccc3c(C(=O)N4CCCCC4)cnn23)cc1F` [Example 381, [7-[6-(3,5-dimethylisoxazol-4-yl)-5-fluoro-3-pyridyl]pyrazolo[1,5-a]pyridin-3-yl]-(1-piperidyl)methanone] returned an IC50 not above 100 nM. Besides, the fold induction at 1 µM with A549 cells was more than 1.5.
In turn, `CNC(=O)c1ccc(-c2cccc3c(C(=O)N4CCCCC4)cnn23)cc1` [Example 58, N-methyl-4-(3-(piperidine-1-carbonyl)pyrazolo[1,5-a]pyridin-7-yl)benzamide] registered an IC50 on human 15-PGDH not above 100 nM. Further, in the assay on A549 cells, the fold induction at 1 µM is more than 1.5.
The matching figures for `O=C(c1cnn2c(-c3ccc(Cl)nc3F)cccc12)N1CCCCC1` [Example 315, (7-(6-chloro-2-fluoropyridin-3-yl)pyrazolo[1,5-a]pyridin-3-yl)(piperidin-1-yl)methanone]: not above 100 nM and more than 1.5.
